Assay results from US12690587B2, “Animal and insect repellent and method of its use” (Cranberry IP, LLC, priority 2023, dated 2026).

Test system: white tail deer
Assay: 12-month field test of repellent at twenty-one monitored test sites (tracks and browsing damage)
Format: in vivo, Odocoileus virginianus
Conditions: within 60-day application periods; regular and consistent use
Procedure: The performance of repellent composition of the present invention was evaluated by the inventor of the present invention in a study that lasted for approximately one year using twenty-one monitored test sites to field test the effectiveness of the composition that included butyl lactate. These sites each had three monitored areas: formulation with butyl lactate (1), same formulation without butyl lactate (2), and control (3), each approximately 100-200 square feet in size. Due to the proximity of the sites, the range of climates, food sources and types of species were consistent, making it easy to assess the repellent's effectiveness, which was evaluated by means of visual inspections and rating for animal tracks around and in the areas, and browsing damage to the plant material.

CCCCOC(=O)C(C)O (stereo not shown) [Butyl lactate]
duration of decreased white tail deer damage, presence and entry into treated areas: more than 30 days
